Experimental data as given in patent US10428083B2, “Heterocyclylmethyl-thienouracile as antagonists of the adenosine-A2B-receptor” (BAYER PHARMA AKTIENGESELLSCHAFT, priority 2015, dated 2019).
pIC50: −log10 of the molar value.

Biological target: human adenosine A2b receptor (Homo sapiens (Human), UniProt P29275)
Assay: Cellular in vitro reporter gene test for A2b receptor activity (CHO-K1, CRE-luciferase, NECA stimulation)
Format: cell-based
Conditions: recombinant CHO-K1 cell line, CRE-luciferase reporter, antagonism of EC50 concentration of NECA; in some cases means of several determinations, rounded to two significant figures; read-out: A2b receptor IC50
Procedure, shortened: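 CHO-K1 cells with CRE-driven luciferase; antagonists co-incubated with NECA at its EC50, determined in a pre-experiment on each test day. Luciferase read by luminescence 3 h after NECA addition.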

Sequence of human adenosine A2b receptor (P29275 whole entry): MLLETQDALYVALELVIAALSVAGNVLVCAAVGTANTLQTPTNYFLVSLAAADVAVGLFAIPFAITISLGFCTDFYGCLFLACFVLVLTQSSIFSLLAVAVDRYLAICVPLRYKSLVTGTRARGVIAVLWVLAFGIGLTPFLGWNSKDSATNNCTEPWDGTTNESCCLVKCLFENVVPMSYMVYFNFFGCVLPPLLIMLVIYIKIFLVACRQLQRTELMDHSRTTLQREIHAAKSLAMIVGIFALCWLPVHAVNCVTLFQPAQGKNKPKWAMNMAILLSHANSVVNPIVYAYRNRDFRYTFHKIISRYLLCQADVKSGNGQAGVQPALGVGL

SMILES	pIC50
COCCn1c(=O)n(CC(C)C)c(=O)c2c(C)c(CN3CCN(C=O)C3=S)sc21 [Example 46, 3-{[3-Isobutyl-1-(2-methoxyethyl)-5-methyl-2,4-dioxo-1,2,3,4-tetrahydrothieno[2,3-d]pyrimidin-6-yl]methyl}-2-thioxoimidazolidine-1-carbaldehyde]	7.54
COCCn1c(=O)n(CC(C)OC)c(=O)c2c(C)c(CN3CCNC3=O)sc21 (racemic) [Example 99, 1-(2-Methoxyethyl)-3-(2-methoxypropyl)-5-methyl-6-[(2-oxoimidazolidin-1-yl)methyl]thieno[2,3-d]pyrimidine-2,4(1H,3H)-dione]	7.77
COC(C)(C)Cn1c(=O)c2c(C)c(CN3CCNC3=O)sc2n(CCCF)c1=O [Example 237, 1-(3-Fluoropropyl)-3-(2-methoxy-2-methylpropyl)-5-methyl-6-[(2-oxoimidazolidin-1-yl)methyl]thieno[2,3-d]pyrimidine-2,4(1H,3H)-dione]	7.77
Cc1c(CN2CCNC2=S)sc2c1c(=O)n(C(C)C)c(=O)n2CCCF [Example 298, 1-(3-Fluoropropyl)-3-isopropyl-5-methyl-6-[(2-thioxoimidazolidin-1-yl)methyl]thieno[2,3-d]pyrimidine-2,4(1H,3H)-dione]	8.62
Cc1c(CN2CCNC2=O)sc2c1c(=O)n(C(C)C)c(=O)n2CC1CCO1 (single isomer, unassigned) [Example 184, 3-Isopropyl-5-methyl-1-(oxetan-2-ylmethyl)-6-[(2-oxoimidazolidin-1-yl)methyl]thieno[2,3-d]pyrimidine-2,4(1H,3H)-dione]	8.15
COCCn1c(=O)n(CC(C)(C)C)c(=O)c2c(C)c(Cn3cc[nH]c3=O)sc21 [Example 506, 3-(2,2-Dimethylpropyl)-1-(2-methoxyethyl)-5-methyl-6-[(2-oxo-2,3-dihydro-1H-imidazol-1-yl)methyl]thieno[2,3-d]pyrimidine-2,4(1H,3H)-dione]	7.92
COCCn1c(=O)n(CC=C(C)C)c(=O)c2c(C)c(CN3CCNC3=O)sc21 [Example 203, 1-(2-Methoxyethyl)-5-methyl-3-(3-methylbut-2-en-1-yl)-6-[(2-oxoimidazolidin-1-yl)methyl]thieno[2,3-d]pyrimidine-2,4(1H,3H)-dione]	7.24
COCCn1c(=O)n(CC2CC2(F)F)c(=O)c2c(C)c(CN3CCNC3=O)sc21 (racemic) [Example 323, 3-[(2,2-Difluorocyclopropyl)methyl]-1-(2-methoxyethyl)-5-methyl-6-[(2-oxoimidazolidin-1-yl)methyl]thieno[2,3-d]pyrimidine-2,4(1H,3H)-dione]	7.47
COCCn1c(=O)n(CC(C)(C)OC)c(=O)c2c(C)c(CN3CCNC3=O)sc21 [Example 238, 1-(2-Methoxyethyl)-3-(2-methoxy-2-methylpropyl)-5-methyl-6-[(2-oxoimidazolidin-1-yl)methyl]thieno[2,3-d]pyrimidine-2,4(1H,3H)-dione]	7.00
COCCn1c(=O)n(CCc2ccccc2)c(=O)c2c(C(F)(F)F)c(CN3CCCS3(=O)=O)sc21 [Example 18, 6-[(1,1-Dioxido-1,2-thiazolidin-2-yl)methyl]-1-(2-methoxyethyl)-3-(2-phenylethyl)-5-(trifluoromethyl)thieno[2,3-d]pyrimidine-2,4(1H,3H)-dione]	7.85
Cc1c(CN2CCNC(=O)C2=O)sc2c1c(=O)n(C(C)C)c(=O)n2CC1CCO1 (single isomer, unassigned) [Example 399, 6-[(2,3-Dioxopiperazin-1-yl)methyl]-3-isopropyl-5-methyl-1-(oxetan-2-ylmethyl)thieno[2,3-d]pyrimidine-2,4(1H,3H)-dione]	7.59
CCn1c(=O)c2c(C)c(CN3CC(=O)NCC3=O)sc2n(CCC(F)(F)F)c1=O [Example 497, 6-[(2,5-Dioxopiperazin-1-yl)methyl]-3-ethyl-5-methyl-1-(3,3,3-trifluoropropyl)thieno[2,3-d]pyrimidine-2,4(1H,3H)-dione]	6.14
Cc1c(CN2CCNC(=O)C2=O)sc2c1c(=O)n(CC(F)(F)F)c(=O)n2CC1CCCO1 (single isomer, unassigned) [Example 488, 6-[(2,3-Dioxopiperazin-1-yl)methyl]-5-methyl-1-(tetrahydrofuran-2-ylmethyl)-3-(2,2,2-trifluoroethyl)thieno[2,3-d]pyrimidine-2,4(1H,3H)-dione]	7.17
CCn1c(=O)c2c(C)c(CN3CCNC3=O)sc2n(CC2CCCCO2)c1=O (single isomer, unassigned) [Example 179, 3-Ethyl-5-methyl-6-[(2-oxoimidazolidin-1-yl)methyl]-1-(tetrahydro-2H-pyran-2-ylmethyl)thieno[2,3-d]pyrimidine-2,4(1H,3H)-dione]	6.70
Cc1c(Cn2nc[nH]c2=O)sc2c1c(=O)n(C(C)C)c(=O)n2CCCF [Example 423, 1-(3-Fluoropropyl)-3-isopropyl-5-methyl-6-[(5-oxo-4,5-dihydro-1H-1,2,4-triazol-1-yl)methyl]thieno[2,3-d]pyrimidine-2,4(1H,3H)-dione]	7.26
Cc1c(CN2CCNC(=O)C2=O)sc2c1c(=O)n(CC(C)(C)C)c(=O)n2CC1CCCO1 (racemic) [Example 483, 3-(2,2-Dimethylpropyl)-6-[(2,3-dioxopiperazin-1-yl)methyl]-5-methyl-1-(tetrahydrofuran-2-ylmethyl)thieno[2,3-d]pyrimidine-2,4(1H,3H)-dione]	7.35
CCn1c(=O)c2c(C)c(Cn3nc[nH]c3=O)sc2n(CCCF)c1=O [Example 353, 3-Ethyl-1-(3-fluoropropyl)-5-methyl-6-[(5-oxo-4,5-dihydro-1H-1,2,4-triazol-1-yl)methyl]thieno[2,3-d]pyrimidine-2,4(1H,3H)-dione]	7.51
Cc1c(CN2CCNC2=S)sc2c1c(=O)n(CC(F)(F)F)c(=O)n2CC1CCO1 (single isomer, unassigned) [Example 155, 5-Methyl-1-(oxetan-2-ylmethyl)-6-[(2-thioxoimidazolidin-1-yl)methyl]-3-(2,2,2-trifluoroethyl)thieno[2,3-d]pyrimidine-2,4(1H,3H)-dione]	7.59
COCCn1c(=O)n(CCc2ccccc2)c(=O)c2c(C(F)(F)F)c(CN3CCOC3=O)sc21 [Example 22, 1-(2-Methoxyethyl)-6-[(2-oxo-1,3-oxazolidin-3-yl)methyl]-3-(2-phenylethyl)-5-(trifluoromethyl)thieno[2,3-d]pyrimidine-2,4(1H,3H)-dione]	7.62
CCOCCn1c(=O)c2c(C)c(CN3CCNC3=O)sc2n(CCC(F)(F)F)c1=O [Example 326, 3-(2-Ethoxyethyl)-5-methyl-6-[(2-oxoimidazolidin-1-yl)methyl]-1-(3,3,3-trifluoropropyl)thieno[2,3-d]pyrimidine-2,4(1H,3H)-dione]	8.00
COCCn1c(=O)n(CCc2ccccc2)c(=O)c2c(C)c(CN3CCNC3=O)sc21 [Example 176, 1-(2-Methoxyethyl)-5-methyl-6-[(2-oxoimidazolidin-1-yl)methyl]-3-(2-phenylethyl)thieno[2,3-d]pyrimidine-2,4(1H,3H)-dione]	8.82
COC(=O)N=C1NCCN1Cc1sc2c(c1C)c(=O)n(C(C)C)c(=O)n2CC1CCO1 (racemic) [Example 379, Methyl [1-{[3-isopropyl-5-methyl-1-(oxetan-2-ylmethyl)-2,4-dioxo-1,2,3,4-tetrahydrothieno[2,3-d]pyrimidin-6-yl]methyl}imidazolidin-2-ylidene]carbamate]	7.89
